This is an account of results in patent publication US20240262811A1, “BENZIMIDAZOYL GLP-1 RECEPTOR AGONISTS, PHARMACEUTICAL COMPOSITIONS COMPRISING THE SAME, AND METHODS FOR THEIR USE” (Carmot Therapeutics, Inc., priority 2021, published 2024).

The assay deals with T1, human GLP-1 receptor (Homo sapiens, UniProt P43220).
T1 construct: expressed in transfected cells
Nature of the assay: GLP-1R cAMP Assay (HitHunter cAMP accumulation in CHO cells stably overexpressing the human GLP-1 receptor). The assay is classed as cell-based. The settings on record: CHO cells overexpressing human GLP-1 receptor, 30 min treatment, 20-point dose response in triplicate. The method, then:
cAMP accumulation was measured in Chinese hamster ovary (CHO) cells stably overexpressing the human GLP-1 receptor using the HitHunter cAMP Assay for Small Molecules Kit (Eurofins). Briefly, cells were grown in Ham's F12 Nutrient Mix with 10% FBS, and lifted with Cell Dissociation Buffer, Enzyme free, PBS based (ThermoFisher). Cells were pelleted, and resuspended in Hank's buffered saline solution with 10 mM HEPES, and 625 μM 3-isobutyl-1-methylxanthine. The anti-cAMP antibody reagent was then added to cells at a 1:2 ratio and 5 μL of mixture was seeded in 384-well small volume white assay plates, at 10,000 cells/well. Cells were then treated with 50 nL compound using an ECHO 550 acoustic dispenser (Labcyte) in a 20-point dose response format in triplicate for 30 min. Cells were then lysed, and detection reagents added according to the manufacturer's protocol. After overnight incubation, luminescence was measured using a Perkin Elmer Envision plate reader. Dose response curves were analyzed using GraphPad Prism 9.0.
Molecular weights are calculated by standard techniques, and mass spectrometry results are reported according to the Examples above.
In general terms: cAMP levels reflect the balance of adenylyl cyclase and phosphodiesterase activity.

A value given as a limit tells only on which side of the number the result lay.

One may read the EC50 as the concentration at which the effect is half-maximal.

T1 sequence (P43220 24-463): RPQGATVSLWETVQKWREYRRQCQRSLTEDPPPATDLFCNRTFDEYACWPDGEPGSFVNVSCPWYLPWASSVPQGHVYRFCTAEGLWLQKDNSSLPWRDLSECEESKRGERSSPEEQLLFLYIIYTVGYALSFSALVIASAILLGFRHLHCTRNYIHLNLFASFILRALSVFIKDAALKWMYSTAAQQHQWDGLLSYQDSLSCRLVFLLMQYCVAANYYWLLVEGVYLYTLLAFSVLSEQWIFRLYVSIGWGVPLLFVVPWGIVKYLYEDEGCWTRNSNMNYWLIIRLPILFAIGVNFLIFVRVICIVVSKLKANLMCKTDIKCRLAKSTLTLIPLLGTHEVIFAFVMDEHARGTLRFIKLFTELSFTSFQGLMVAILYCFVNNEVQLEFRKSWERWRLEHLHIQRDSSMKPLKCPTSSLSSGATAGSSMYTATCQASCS

For `O=C(O)c1ccc2nc(CN3CC[C@H](Oc4ccnc(COc5ccc(Cl)cc5F)c4)C3)n(C[C@@H]3CCO3)c2c1` [Compound 289, 2-{[(3S)-3-({2-[(4-chloro-2-fluorophenoxy)methyl]pyridin-4-yl}oxy)pyrrolidin-1-yl]methyl}-1-{[(2S)-oxetan-2-yl]methyl}-1H-1,3-benzodiazole-6-carboxylic acid], the EC50 is under 50 nM.
